Measured values as given in patent publication US5726195A, “Aminoacyl adenylate mimics as novel antimicrobial and antiparasitic agents” (Cubist Pharmaceuticals, Inc., priority 1996, dated 1998).
pIC50: −log10 of the molar value. ≈ marks a conversion by molar mass, not a printed value.

Assays:
[1] = target: E. Coli. IleRS (isoleucyl-tRNA synthetase) (Escherichia coli, UniProt P00956); assay: Inhibition of isoleucyl-tRNA synthetase (aminoacylation of tRNA with [3H]isoleucine); assay type: biochemical; conditions: E. coli enzyme; irreversible inhibitors: values are 50% of the active enzyme concentration; read-out: IC50 E.Coli. IleRS
Protocol: The extent of aminoacylation of tRNA with isoleucine catalyzed by isoleucyl-tRNA synthetase enzyme was measured by monitoring the incorporation of [3H] isoleucine into trichloroacetic acid-precipitable tRNA in the presence of a compound of Formula I, as compared with activity in the absence of inhibitor. The isoleucyl-tRNA synthetase enzymes are well known in the prior art and can be obtained and purified by known methods (for example see: D. Kern et at., Biochimie, 61, 1257-1272 (1979) and J. Gilbart et al., Antimicrobial Agents and Chemotherapy, 37 (1), 32-38 (1993)).
Isoleucyl-tRNA synthetase enzyme (0.08-2.0 nM, preferably, 0.4 nM) was first pre-incubated at 25° C. with 0.05 mg/ml bovine serum albumin, 10 mM DTT, 2.5% dimethyl sulfoxide, with or without a compound of Formula I, for 20 minutes. At this point a substrate solution (a solution containing the following: ATP, [^3 H]isoleucine, tRNA, HEPES, magnesium chloride, and potassium chloride) was added to give a final concentration of 0.0286 mg/ml bovine serum albumin, 5.7 mM DTT, 4 mM ATP, 5-20 μM [^3 H] isoleucine (1-15 Ci/mmol), 90 μM crude tRNA or 2 μM isoleucine specific tRNA, 1.4% dimethyl sulfoxide, 30 mM HEPES (pH 7.5), 10 mM magnesium chloride, and 50 mM potassium chloride and incubated at 25° C. Aliquots were removed at selected times (e.g. 5, 10, 20 minutes) and applied to 3MM filter paper discs (Whatman) and then dropped into 5% (wt/vol) trichloroacetic acid for >5 minutes. Filters were washed for three 10-minute periods in 5% trichloroacetic acid, rinsed in 95% ethanol and diethyl ether, and radioactivity was measured with Betafluor™ (National Diagnostics) by liquid scintillation counting.
Inhibitor activity is reported in Table II as an IC50 value (inhibitor concentration causing 50% inhibition of enzyme activity) per a known amount of active enzyme. In the case of irreversible inhibitors (1:1 stoichiometry) these values are 50% of the active enzyme concentration. The IC50 (in nM, E. coli) values of representative compounds of the present invention are listed in the second column of Table II.

[2] = test system: C. albicans ATCC 10231; assay: Whole cell antimicrobial screen, MIC; assay type: cell-based; conditions: Candida albicans, ATCC10231
Protocol: (§1) Compounds were tested for antimicrobial activity against a panel of organisms according to standard procedures described by the National Committee for Clinical Laboratory Standards (NCCLS document M7-A3, Vol. 13, No. 25, 1993/NCCLS document M27-P, Vol. 12, No. 25, 1992). Compounds were dissolved in 100% dimethyl sulfoxide and were diluted to the final reaction concentration (0.1 μg/mL-500 μg/mL) in microbial growth media. In al cases the final concentration of dimethyl sulfoxide incubated with cells is less than or equal to 1%. For minimum inhibitory concentration (MIC) calculations, 2-fold dilutions of compounds were added to wells of a microtiter plate containing 5×10^4 bacteria or fungal cells in a final volume of 100 lambda of an appropriate media (Mueller-Hinton Broth; Haemophilus Test Media; Mueller-Hinton Broth+5% Sheep Blood; or […]). Plates were incubated overnight at an appropriate temperature (30° C.-37° C.) and optical densities (measure of cell growth) were measured using a commercial plate reader. The MIC value is defined as the lowest compound concentration inhibiting growth of the test organism.

[3] = test system: E. faecalis ATCC 33011; assay: Whole cell antimicrobial screen, MIC; assay type: cell-based; conditions: Enterococcus faecalis, ATCC33011
Protocol: as §1

[4] = test system: E. faecium ATCC 6569; assay: Whole cell antimicrobial screen, MIC; assay type: cell-based; conditions: Enterococcus faecium, ATCC6569
Protocol: as §1

[5] = test system: S. aureus ATCC 14154; assay: Whole cell antimicrobial screen, MIC; assay type: cell-based; conditions: Staphylococcus aureus, ATCC14154
Protocol: as §1

[6] = test system: S. aureus ATCC 6538P; assay: Whole cell antimicrobial screen, MIC; assay type: cell-based; conditions: Staphylococcus aureus, ATCC6538P
Protocol: as §1

[7] = test system: S. epidermidis ATCC 33501; assay: Whole cell antimicrobial screen, MIC; assay type: cell-based; conditions: Staphylococcus epidermidis, ATCC33501
Protocol: as §1

[8] = test system: S. saprophyticus ATCC 35552; assay: Whole cell antimicrobial screen, MIC; assay type: cell-based; conditions: Staphylococcus saprophyticus, ATCC35552
Protocol: as §1

[9] = test system: B. subtilis ATCC 6633; assay: Whole cell antimicrobial screen, MIC; assay type: cell-based; conditions: Bacillus subtilis, ATCC6633
Protocol: as §1

[10] = test system: K. pneumonia ATCC 4352; assay: Whole cell antimicrobial screen, MIC; assay type: cell-based; conditions: Klebsiella pneumoniae, ATCC4352
Protocol: as §1

Chain of E. Coli. IleRS (isoleucyl-tRNA synthetase) (P00956 whole entry): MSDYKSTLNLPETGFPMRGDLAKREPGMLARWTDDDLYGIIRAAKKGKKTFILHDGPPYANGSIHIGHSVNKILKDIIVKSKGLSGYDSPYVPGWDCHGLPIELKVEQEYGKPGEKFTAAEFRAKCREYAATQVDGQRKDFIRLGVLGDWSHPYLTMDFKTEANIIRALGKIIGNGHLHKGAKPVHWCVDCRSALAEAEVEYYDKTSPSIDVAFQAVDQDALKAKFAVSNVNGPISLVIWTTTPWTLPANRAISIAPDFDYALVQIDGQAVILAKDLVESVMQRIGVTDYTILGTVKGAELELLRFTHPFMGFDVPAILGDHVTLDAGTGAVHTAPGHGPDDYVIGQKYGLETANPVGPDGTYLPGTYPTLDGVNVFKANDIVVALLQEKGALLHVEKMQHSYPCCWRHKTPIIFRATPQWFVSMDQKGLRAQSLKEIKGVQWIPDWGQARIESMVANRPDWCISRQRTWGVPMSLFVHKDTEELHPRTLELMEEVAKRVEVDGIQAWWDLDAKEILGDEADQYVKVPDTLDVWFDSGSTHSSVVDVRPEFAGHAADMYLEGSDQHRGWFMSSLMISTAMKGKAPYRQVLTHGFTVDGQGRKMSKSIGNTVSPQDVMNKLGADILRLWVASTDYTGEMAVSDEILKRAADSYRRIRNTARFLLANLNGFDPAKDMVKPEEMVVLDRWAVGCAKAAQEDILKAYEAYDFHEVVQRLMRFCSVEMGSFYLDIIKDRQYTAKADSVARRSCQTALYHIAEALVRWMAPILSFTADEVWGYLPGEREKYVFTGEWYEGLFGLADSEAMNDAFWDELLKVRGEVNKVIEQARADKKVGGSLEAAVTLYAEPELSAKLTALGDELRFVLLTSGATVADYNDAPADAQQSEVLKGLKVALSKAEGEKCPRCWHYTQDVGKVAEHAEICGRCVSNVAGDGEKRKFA

SMILES	pIC50 [1]	MIC [2]	MIC [3]	MIC [4]	MIC [5]	MIC [6]	MIC [7]	MIC [8]	MIC [9]	MIC [10]
CC[C@H](C)[C@H](N)C(=O)NS(=O)(=O)OC[C@H]1O[C@@H](CCn2nnc(-c3ccc(Oc4cccc(C(F)(F)F)c4)cc3)n2)[C@H](O)[C@@H]1O [XIV]	8.77	> 500 µg/mL	100 µg/mL (≈ 152 µM)	10 µg/mL (≈ 15.2 µM)	25 µg/mL (≈ 38 µM)	10 µg/mL (≈ 15.2 µM)	5 µg/mL (≈ 7.59 µM)	10 µg/mL (≈ 15.2 µM)	–	–
CC[C@H](C)[C@H](N)C(=O)NS(=O)(=O)OC[C@H]1O[C@@H](CCn2nnc(-c3ccc(-c4ccccn4)nc3)n2)[C@H](O)[C@@H]1O [XXV]	9.30	–	> 500 µg/mL	> 500 µg/mL	100 µg/mL (≈ 173 µM)	500 µg/mL (≈ 867 µM)	25 µg/mL (≈ 43.4 µM)	50 µg/mL (≈ 86.7 µM)	> 500 µg/mL	> 500 µg/mL
CC[C@H](C)[C@H](N)C(=O)NS(=O)(=O)OC[C@H]1O[C@@H](CCn2nnc(-c3ccc(Oc4nccs4)cc3)n2)[C@H](O)[C@@H]1O [XVII]	9.00	> 500 µg/mL	> 500 µg/mL	50 µg/mL (≈ 83.7 µM)	500 µg/mL (≈ 837 µM)	100 µg/mL (≈ 167 µM)	25 µg/mL (≈ 41.8 µM)	50 µg/mL (≈ 83.7 µM)	–	–
CC[C@H](C)[C@H](N)C(=O)NS(=O)(=O)OC[C@H]1O[C@@H](CCn2nnc(-c3ccc(C=C(Br)Br)cc3)n2)[C@H](O)[C@@H]1O [V]	7.96	500 µg/mL (≈ 733 µM)	500 µg/mL (≈ 733 µM)	100 µg/mL (≈ 147 µM)	100 µg/mL (≈ 147 µM)	50 µg/mL (≈ 73.3 µM)	25 µg/mL (≈ 36.6 µM)	25 µg/mL (≈ 36.6 µM)	–	–
CC[C@H](C)[C@H](N)C(=O)NS(=O)(=O)OC[C@H]1O[C@@H](CCn2nnc(-c3ccc(Oc4ccc(N)cc4)cc3)n2)[C@H](O)[C@@H]1O [XIII]	9.40	> 500 µg/mL	> 500 µg/mL	25 µg/mL (≈ 41.3 µM)	100 µg/mL (≈ 165 µM)	50 µg/mL (≈ 82.6 µM)	10 µg/mL (≈ 16.5 µM)	25 µg/mL (≈ 41.3 µM)	–	–
CC[C@H](C)[C@H](N)C(=O)NS(=O)(=O)OC[C@H]1O[C@@H](CCn2nnc(-c3ccc(C#Cc4cccc([N+](=O)[O-])c4)cc3)n2)[C@H](O)[C@@H]1O [III]	8.52	> 500 µg/mL	> 500 µg/mL	> 500 µg/mL	50 µg/mL (≈ 77.7 µM)	50 µg/mL (≈ 77.7 µM)	1 µg/mL (≈ 1.55 µM)	5 µg/mL (≈ 7.77 µM)	–	–
CC[C@H](C)[C@H](N)C(=O)NS(=O)(=O)OC[C@H]1O[C@@H](CCn2nnc(Cc3ccc(Oc4ccccc4)cc3)n2)[C@H](O)[C@@H]1O [XXX]	8.57	> 200 µg/mL	500 µg/mL (≈ 827 µM)	100 µg/mL (≈ 165 µM)	500 µg/mL (≈ 827 µM)	100 µg/mL (≈ 165 µM)	25 µg/mL (≈ 41.3 µM)	100 µg/mL (≈ 165 µM)	–	–
CC[C@H](C)[C@H](N)C(=O)NS(=O)(=O)OC[C@H]1O[C@@H](CCn2nnc(CCCOc3ccccc3)n2)[C@H](O)[C@@H]1O [XXIX]	9.52	> 500 µg/mL	> 500 µg/mL	> 500 µg/mL	> 500 µg/mL	500 µg/mL (≈ 898 µM)	25 µg/mL (≈ 44.9 µM)	500 µg/mL (≈ 898 µM)	–	–
CC[C@H](C)[C@H](N)C(=O)NS(=O)(=O)OC[C@H]1O[C@@H](CCn2nnc(-c3ccc(C(=O)OC)cc3)n2)[C@H](O)[C@@H]1O [VII]	9.28	> 500 µg/mL	> 500 µg/mL	100 µg/mL (≈ 180 µM)	500 µg/mL (≈ 898 µM)	100 µg/mL (≈ 180 µM)	10 µg/mL (≈ 18 µM)	50 µg/mL (≈ 89.8 µM)	–	–
CC[C@H](C)[C@H](N)C(=O)NS(=O)(=O)OC[C@H]1O[C@@H](CCn2nnc(-c3ccc(Oc4ccc(OC)cc4)cc3)n2)[C@H](O)[C@@H]1O [XII]	8.52	500 µg/mL (≈ 806 µM)	500 µg/mL (≈ 806 µM)	10 µg/mL (≈ 16.1 µM)	50 µg/mL (≈ 80.6 µM)	25 µg/mL (≈ 40.3 µM)	< 5 µg/mL	25 µg/mL (≈ 40.3 µM)	–	–
CC[C@H](C)[C@H](N)C(=O)NS(=O)(=O)OC[C@H]1O[C@@H](CCn2nnc(-c3ccc(Oc4ccc(Oc5ccccc5)cc4)cc3)n2)[C@H](O)[C@@H]1O [XV]	8.74	> 500 µg/mL	> 500 µg/mL	25 µg/mL (≈ 36.6 µM)	10 µg/mL (≈ 14.6 µM)	10 µg/mL (≈ 14.6 µM)	5 µg/mL (≈ 7.32 µM)	10 µg/mL (≈ 14.6 µM)	–	–
CC[C@H](C)[C@H](N)C(=O)NS(=O)(=O)OC[C@H]1O[C@@H](CCn2nnc(-c3ccc([N+](=O)[O-])o3)n2)[C@H](O)[C@@H]1O [XXVIII]	8.06	500 µg/mL (≈ 937 µM)	> 128 µg/mL	> 128 µg/mL	128 µg/mL (≈ 240 µM)	128 µg/mL (≈ 240 µM)	32 µg/mL (≈ 60 µM)	> 128 µg/mL	–	–
CC[C@H](C)[C@H](N)C(=O)NS(=O)(=O)OC[C@H]1O[C@@H](CCn2nnc(-c3ccc([N+](=O)[O-])cc3)n2)[C@H](O)[C@@H]1O [VIII]	9.30	> 500 µg/mL	> 500 µg/mL	500 µg/mL (≈ 920 µM)	500 µg/mL (≈ 920 µM)	500 µg/mL (≈ 920 µM)	10 µg/mL (≈ 18.4 µM)	100 µg/mL (≈ 184 µM)	–	–
CC[C@H](C)[C@H](N)C(=O)NS(=O)(=O)OC[C@H]1O[C@@H](CCn2nnc(-c3ccc(-c4ccc(F)c(F)c4)cc3)n2)[C@H](O)[C@@H]1O [XXIII]	8.54	10 µg/mL (≈ 16.4 µM)	–	100 µg/mL (≈ 164 µM)	100 µg/mL (≈ 164 µM)	50 µg/mL (≈ 81.9 µM)	10 µg/mL (≈ 16.4 µM)	25 µg/mL (≈ 40.9 µM)	50 µg/mL (≈ 81.9 µM)	100 µg/mL (≈ 164 µM)
CC[C@H](C)[C@H](N)C(=O)NS(=O)(=O)OC[C@H]1O[C@@H](CCn2nnc(-c3ccc(C#Cc4ccc([N+](=O)[O-])s4)cc3)n2)[C@H](O)[C@@H]1O [I, [S-(R*,R*)]-3,6-anhydro-1,2-dideoxy-1-[5-[4-[(5-nitro-2-thienyl)ethynyl]phenyl]-2H-tetrazol-2-yl]-D-allo-heptitol 7-(2-amino-3-methyl-1-oxopentyl)sulfamate]	8.89	> 500 µg/mL	> 500 µg/mL	> 500 µg/mL	5 µg/mL (≈ 7.7 µM)	1 µg/mL (≈ 1.54 µM)	1 µg/mL (≈ 1.54 µM)	2 µg/mL (≈ 3.08 µM)	–	–
CC[C@H](C)[C@H](N)C(=O)NS(=O)(=O)OC[C@H]1O[C@@H](Cn2nnc(Cc3ccc(Oc4ccccc4)cc3)n2)[C@H](O)[C@@H]1O [XXVII, [S-(R*,R*)]-2,5-anhydro-1-deoxy-1-[5-(4-phenoxyphenylmethyl)-2H-tetrazol-2-yl]-D-allitol 6-(2-amino-3-methyl-1-oxopentyl)sulfamate]	6.87	> 500 µg/mL	> 500 µg/mL	> 500 µg/mL	> 500 µg/mL	> 500 µg/mL	> 500 µg/mL	> 500 µg/mL	–	–
CC[C@H](C)[C@H](N)C(=O)NS(=O)(=O)OC[C@H]1O[C@@H](CCn2nnc(-c3ccc(Oc4ccccn4)cc3)n2)[C@H](O)[C@@H]1O [XVI]	9.15	100 µg/mL (≈ 169 µM)	500 µg/mL (≈ 845 µM)	50 µg/mL (≈ 84.5 µM)	100 µg/mL (≈ 169 µM)	100 µg/mL (≈ 169 µM)	25 µg/mL (≈ 42.3 µM)	50 µg/mL (≈ 84.5 µM)	–	–
